Measurements from US9561228B2 (Celgene Avilomics Research, Inc., priority 2013, dated 2017).

What follows are molecules tested on ERK1/2 phosphorylation of p90RSK in HT29 cells (assay: pRSK MSD Assay in HT29 cells). Conditions: Homo sapiens, HT-29, read-out: ERK1/ERK2 PRSK MSD HT29 EC50.
Assay type: cell-based
Procedure: The protocol below describes an assay to measure the kinase activity of ERK1/2 to phosphorylate a substrate, p90RSK, in the presence or absence of a test compound. This experiment was conducted using a Mesoscale Discovery plate. The day before the assay, HT29 cells were split and plated at 50,000 cells/well in complete growth media. After allowing cells to adhere, the media was removed and replaced with media containing 0.1% FBS and incubated overnight. Blank MSD plates (Mesoscale Discovery, Cat # L15XA3) were coated with 25 μl/well RSK capture antibody (BD Biosciences, Cat. #610226) and incubated at 4° C. overnight, then blocked with 150 μl of 3% BSA solution. The next day, the media from the cell culture plate was removed and replaced with 100 μl of media containing a test compound and incubated for 120 minutes at 37° C. The media was removed and replaced with 55 μl per well of lysis buffer with protease inhibitors (Roche Biosciences, Cat. #11836170001) and phosphatase inhibitors (Sigma-Aldrich, Cat. # P-0044 and P-5726), followed by incubation at 4° C. for 30 minutes. 50 μl of lysate was transferred to a blocked MSD plate, followed by incubation at room temperature for 2 hours under constant shaking. The plate was washed 3 times with MSD wash buffer (Mesoscale Discovery, Cat. # R617TX), and 25 μl/well phospho-RSK (pRSK) detection antibody (Cell Signaling Technology, Cat. #9335) was added with Sulfo-tagged detection antibody (Mesoscale Discovery, Cat. # R32AB-1) diluted in 1% BSA in MSD wash buffer. This mixture was incubated for 1 hour at room temperature under constant shaking. The plate was washed 3 times, and 150 μl 1×MSD read buffer was added, followed by signal detection in an MSD plate reader.

| Compound | EC50 |
| --- | --- |
| CC#CC(=O)Nc1ccccc1Nc1nc(N[C@H]2CCCN(C(=O)CO)C2)ncc1C(F)(F)F [Compound I-29, (S)—N-(2-((2-((1-(2-Hydroxyacetyl)piperidin-3-yl)amino)-5-(trifluoromethyl)pyrimidin-4-yl)amino)phenyl)but-2-ynamide] | > 1000 nM |
| CC#CC(=O)N[C@@H]1CCCC[C@H]1Nc1nc(N[C@H]2CCCN(C(=O)CO)C2)ncc1C(F)(F)F [Compound I-33, N-((1R,2R)-2-((2-(((S)-1-(2-Hydroxyacetyl)piperidin-3-yl)amino)-5-(trifluoromethyl)pyrimidin-4-yl)amino)cyclohexyl)but-2-ynamide] | > 1000 nM |
| C=CS(=O)(=O)N[C@@H]1CCCC[C@H]1Nc1nc(N[C@H]2CCCN(C(=O)CO)C2)ncc1C(F)(F)F [Compound I-36, N-((1R,2R)-2-((2-(((S)-1-(2-Hydroxyacetyl)piperidin-3-yl)amino)-5-(trifluoromethyl)pyrimidin-4-yl)amino)cyclohexyl)ethenesulfonamide] | 501 to 999 nM |
| C=CC(=O)N[C@H]1CCCC1Nc1nc(N[C@H]2CCCN(C(C)=O)C2)ncc1C(F)(F)F (stereo in doubt) [Compound I-24, N-((1S,2S)-2-((2-(((S)-1-Acetylpiperidin-3-yl)amino)-5-(trifluoromethyl)pyrimidin-4-yl)amino)cyclopentyl)acrylamide] | > 1000 nM |
| C=CC(=O)Nc1cc(C)ccc1Nc1nc(N[C@H]2CCCN(C(=O)c3ccccc3)C2)ncc1C(F)(F)F [Compound I-44, (S)—N-(2-((2-((1-Benzoylpiperidin-3-yl)amino)-5-(trifluoromethyl)pyrimidin-4-yl)amino)-5-methylphenyl)acrylamide] | > 1000 nM |
| C=CC(=O)Nc1ccccc1Nc1nc(N[C@@H]2CCN(C(=O)CO)C2)ncc1C(F)(F)F [Compound I-62, (R)—N-(2-((2-((1-(2-Hydroxyacetyl)pyrrolidin-3-yl)amino)-5-(trifluoromethyl)pyrimidin-4-yl)amino)phenyl)acrylamide] | > 1000 nM |
| C=CC(=O)Nc1ccccc1Nc1nc(N[C@@H]2CCN(C(=O)OC)C2)ncc1C(F)(F)F [Compound I-61, (R)-Methyl 3-((4-((2-Acrylamidophenyl)amino)-5-(trifluoromethyl)pyrimidin-2-yl)amino)pyrrolidine-1-carboxylate] | > 1000 nM |
| C=CC(=O)Nc1ccccc1CNc1nc(N[C@H]2CCCN(C(=O)CO)C2)ncc1C(F)(F)F [Compound I-45, (S)—N-(2-(((2-((1-(2-Hydroxyacetyl)piperidin-3-yl)amino)-5-(trifluoromethyl)pyrimidin-4-yl)amino)methyl)phenyl)acrylamide] | > 1000 nM |
| C=CC(=O)Nc1ccccc1Nc1nc(N[C@H]2CCCN(C(=O)OC)C2)ncc1C(F)(F)F [Compound I-17, (S)-Methyl 3-((4-((2-acrylamidophenyl)amino)-5-(trifluoromethyl)pyrimidin-2-yl)amino) piperidine-1-carboxylate] | 101 to 500 nM |
| C=C(C)S(=O)(=O)Nc1cc(F)ccc1Nc1nc(N[C@H]2CCCN(C(=O)CO)C2)ncc1C(F)(F)F [Compound I-54, (S)—N-(5-Fluoro-2-((2-((1-(2-hydroxyacetyl)piperidin-3-yl)amino)-5-(trifluoromethyl)pyrimidin-4-yl)amino)phenyl)prop-1-ene-2-sulfonamide] | > 1000 nM |
| C=C(C)S(=O)(=O)Nc1cc(C)ccc1Nc1nc(NC2CCC(=O)CC2)ncc1C(F)(F)F [Compound I-53, N-(5-Methyl-2-((2-((4-oxocyclohexyl)amino)-5-(trifluoromethyl)pyrimidin-4-yl)amino)phenyl)prop-1-ene-2-sulfonamide] | > 1000 nM |

Other lines, results leading:

| EC50 | Compound |
| --- | --- |
| > 1000 nM | C=CC(=O)N(C)c1ccccc1Nc1nc(Nc2cc(C(=O)NOC)ccc2C#N)ncc1Cl [Compound I-197, 3-((5-chloro-4-((2-(N-methylacrylamido)phenyl)amino)pyrimidin-2-yl)amino)-4-cyano-N-methoxybenzamide] |
| > 1000 nM | CC(C)=CC(=O)c1ccccc1Oc1nc(Nc2cc(C(N)=O)ccc2C)ncc1Cl [Compound I-223, 3-((5-chloro-4-(2-(3-methylbut-2-enoyl)phenoxy)pyrimidin-2-yl)amino)-4-methylbenzamide] |
| > 1000 nM | Cc1ccc(C(N)=O)cc1Nc1ncc(Cl)c(Nc2ccccc2NC(=O)/C=C/CN(C)C)n1 [Compound I-218, (E)-3-((5-chloro-4-((2-(4-(dimethylamino)but-2-enamido)phenyl)amino)pyrimidin-2-yl)amino)-4-methylbenzamide] |
| > 1000 nM | CC(C)=CC(=O)c1ccccc1Oc1nc(Nc2ccc(F)cc2C)ncc1Cl [Compound I-222, 1-(2-((5-chloro-2-((4-fluoro-2-methylphenyl)amino)pyrimidin-4-yl)oxy)phenyl)-3-methylbut-2-en-1-one] |
| 101 to 500 nM | C=CC(=O)Nc1cc(Cl)ccc1Nc1nc(Nc2cc(Cl)nc(OC)c2)ncc1Cl [Compound I-247, N-(5-chloro-2-((5-chloro-2-((2-chloro-6-methoxypyridin-4-yl)amino)pyrimidin-4-yl)amino)phenyl)acrylamide] |
| 501 to 999 nM | C=CC(=O)Nc1ccccc1Nc1nc(N[C@H]2CCCN(C(=O)C3CC3)C2)ncc1Cl [Compound I-136, (S)—N-(2-((5-chloro-2-((1-(cyclopropanecarbonyl)piperidin-3-yl)amino)pyrimidin-4-yl)amino)phenyl)acrylamide] |
| > 1000 nM | CC(C)=CC(=O)c1ccccc1Oc1nc(Nc2cc(C(N)=O)ccc2C)ncc1C(N)=O [Compound I-271, 2-((5-carbamoyl-2-methylphenyl)amino)-4-(2-(3-methylbut-2-enoyl)phenoxy)pyrimidine-5-carboxamide] |
| 101 to 500 nM | C=CC(=O)Nc1cc(C)ccc1Nc1nc(Nc2cc(Cl)nc(OC)c2)ncc1Cl [Compound I-244, N-(2-((5-chloro-2-((2-chloro-6-methoxypyridin-4-yl)amino)pyrimidin-4-yl)amino)-5-methylphenyl)acrylamide] |
| > 1000 nM | C=C(C)C(=O)Nc1ccccc1Nc1nc(Nc2cc(C(N)=O)ccc2C)ncc1Cl [Compound I-217, 3-((5-chloro-4-((2-methacrylamidophenyl)amino)pyrimidin-2-yl)amino)-4-methylbenzamide] |
| > 1000 nM | C/C=C/C(=O)Nc1ccccc1Nc1nc(Nc2cc(C(N)=O)ccc2C)ncc1Cl [Compound I-219, (E)-3-((4-((2-(but-2-enamido)phenyl)amino)-5-chloropyrimidin-2-yl)amino)-4-methylbenzamide] |
| 501 to 999 nM | C=CC(=O)Nc1ccccc1Nc1nc(N[C@H]2CCCN(C(=O)C(C)C)C2)ncc1Cl [Compound I-137, (S)—N-(2-((5-chloro-2-((1-isobutyrylpiperidin-3-yl)amino)pyrimidin-4-yl)amino)phenyl)acrylamide] |
| > 1000 nM | CC(=O)N1CCC[C@H](Nc2ncc(C(F)(F)F)c(N[C@@H]3[C@H](C(N)=O)[C@H]4C=C[C@@H]3C4)n2)C1 [Compound I-309, (1R,2R,3S,4S)-3-((2-(((S)-1-acetylpiperidin-3-yl)amino)-5-(trifluoromethyl)pyrimidin-4-yl)amino)bicyclo[2.2.1]hept-5-ene-2-carboxamide] |

The molecules below were run against T1, MEK1 activated ERK1 (Homo sapiens, UniProt P27361) (assay: Omnia continuous-read kinase assay for potency against MEK1 activated ERK1). Conditions: MEK1 activated ERK1, ATP at KM; read-out: ERK1 Omnia WT ATP KM IC50.
T1 construct: purchased Millipore (Billerica, Mass.) 14-439-K
T1 sequence (P27361 whole entry): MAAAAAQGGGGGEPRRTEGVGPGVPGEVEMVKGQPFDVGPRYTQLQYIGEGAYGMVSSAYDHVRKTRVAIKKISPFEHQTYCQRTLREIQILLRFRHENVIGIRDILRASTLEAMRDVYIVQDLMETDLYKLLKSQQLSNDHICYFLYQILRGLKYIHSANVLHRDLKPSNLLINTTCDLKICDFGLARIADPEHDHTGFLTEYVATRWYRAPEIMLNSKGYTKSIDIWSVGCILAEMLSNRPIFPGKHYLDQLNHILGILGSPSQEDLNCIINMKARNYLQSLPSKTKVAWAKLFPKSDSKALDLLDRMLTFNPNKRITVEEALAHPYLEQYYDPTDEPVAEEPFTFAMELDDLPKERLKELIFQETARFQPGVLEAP
Assay type: biochemical
Text: Omnia Assay Protocol for Potency Assessment Against MEK1 Activated ERK1:
The protocol below describes continuous-read kinase assays to measure potency of compounds against activated ERK1 enzyme. The mechanics of the assay platform are best described by the vendor (Invitrogen, Carlsbad, Calif.) on their website at the following URL: invitrogen.com/site/us/en/home.html.
Briefly, a 1.25× stock of ERK1 enzyme (14-439-K) from Millipore (Billerica, Mass.), 5×ATP (AS001A) and ST17-Sox conjugated peptide substrate (KNZ1171C) were prepared in 1× kinase reaction buffer consisting of 20 mM Tris, pH 7.5, 5 mM MgCl2, 1 mM EGTA, 5 mM β-glycerophosphate, 5% glycerol (10× stock, KB002A) and 0.2 mM DTT. 10 μL of ATP/ST17-sox peptide substrate mix was combined with 0.5 μL volume of 100% DMSO and serially diluted compounds were prepared in 100% DMSO in a Corning (#3574) 384-well, white, non-binding surface microtiter plate (Corning, N.Y.). Kinase reactions were started with the addition of 40 μL of ERK1 solution and monitored every 71 seconds for 30-240 minutes at λex360/λem485 in a Synergy plate reader from BioTek (Winooski, Vt.). At the conclusion of each assay, progress curves from each well were examined for linear reaction kinetics and fit statistics (R^2, 95% confidence interval, absolute sum of squares). Initial velocity (0 minutes to ˜30+ minutes) from each reaction was determined from the slope of a plot of relative fluorescence units vs time (minutes or seconds) and then plotted against inhibitor concentration to estimate ^AppIC50 from log [Inhibitor] vs Response, Variable Slope model in GraphPad Prism from GraphPad Software (San Diego, Calif.).
[Reagent] used in optimized protocol:
[ERK1]=4 nM, [ATP]=50 μM, [ST17-Sox]=10 μM (ATP ^appKM 48 μM)
The results of this assay show the degree of inhibition of ERK activity, which is a direct measurement of inhibition of ERK activity. Results from this assay are reported in Table A under the column “ERK1 Omnia WT ATP KM IC50 (nM).”

| IC50 | Compound |
| --- | --- |
| 501 to 999 nM | C=CC(=O)Nc1cc(OC)ccc1Nc1nc(Nc2ccc(N(CC)C(C)=O)cc2C(F)(F)F)ncc1Cl [Compound I-176, N-(2-((5-chloro-2-((4-(N-ethylacetamido)-2-(trifluoromethyl)phenyl)amino)pyrimidin-4-yl)amino)-5-methoxyphenyl)acrylamide] |
